{"source": "paper PMC3566223", "about": "(Cancer prevention research (Philadelphia, Pa.), 2012)", "key": {"[1]": {"assay": "Curcuminoid levels in 24 h urine collection", "assay_type": "in vivo, human", "settings": "24 h urine between last two doses"}, "[2]": {"test_system": "Apc^Min mouse model of inherited colorectal cancer", "settings": "dietary curcumin; cited from earlier work"}, "[3]": {"assay": "Curcuminoid levels in colonic mucosa biopsies", "assay_type": "in vivo, human", "settings": "for Mucosal level, mean concentration ± SEM, unwashed, surgical biopsies / Mucosal level, mean concentration ± SEM, washed, surgical biopsies / Mucosal level, mean concentration ± SEM, unwashed, endoscopy biopsies / Mucosal level, mean concentration ± SEM, washed, endoscopy biopsies: patients, oral Curcumin C3 complex 2.35 g once daily 14 days; for Mucosal level, mean concentration ± SEM, unwashed, surgical biopsies / Mucosal level, mean concentration ± SEM, washed, surgical biopsies: n=5; for Mucosal level, mean concentration ± SEM, unwashed, endoscopy biopsies / Mucosal level, mean concentration ± SEM, washed, endoscopy biopsies: n=30"}, "Adverse event monitoring": {"assay": "Adverse event monitoring", "assay_type": "in vivo, human"}, "[4]": {"assay": "Curcuminoid levels in plasma", "assay_type": "in vivo, human", "settings": "of 24 participants"}, "[5]": {"assay": "Pre- and post-trial self-reported questionnaire", "assay_type": "in vivo, human", "settings": "24 participants completing the 2 week course; period of administration"}, "[6]": {"settings": "cited from earlier work"}, "[7]": {"settings": "one participant, right hemi-colectomy, no bowel preparation of biopsied area"}, "[8]": {"settings": "AEs possibly or probably attributable"}}}
{"smiles": "COc1cc(/C=C/C(=O)CC(=O)/C=C/c2ccc(O)c(OC)c2)ccc1O", "note": "[Curcumin, curcumin]", "values": [{"measurement": "Urine level, mean", "setting": "[1]", "value": 27.0, "unit": "ng/mL"}, {"measurement": "Urine curcumin level, range", "setting": "[1]; 12 participants with quantifiable levels", "value": "0.67 to 503.3", "unit": "ng/mL"}, {"measurement": "Reduction of adenoma formation", "setting": "[2]", "value": "39-64%"}, {"measurement": "Surface curcumin level, single participant", "setting": "[3]; [7]", "value": 551.1, "unit": "µg/g"}, {"measurement": "Tissue curcumin level, single participant", "setting": "[3]; [7]", "value": 228.3, "unit": "µg/g"}, {"measurement": "Mean pre-wash curcumin level, left-sided paired endoscopic biopsies", "setting": "[3]; oral Curcumin C3 complex 2.35 g daily 14 days, paired left-sided, n=12 pairs", "value": 9.0, "unit": "µg/g"}, {"measurement": "Mean pre-wash curcumin level, right-sided paired endoscopic biopsies", "setting": "[3]; oral Curcumin C3 complex 2.35 g daily 14 days, paired right-sided, n=12 pairs", "value": 35.4, "unit": "µg/g"}, {"measurement": "Decrease in tissue curcumin after consecutive washes", "setting": "[3]; paired right-sided biopsy samples", "value": 74, "unit": "%"}, {"measurement": "Mucosal level, mean concentration ± SEM, unwashed, surgical biopsies", "setting": "[3]", "value": "75.32 ± 39.71", "unit": "µg/g"}, {"measurement": "Mucosal level, mean concentration ± SEM, washed, surgical biopsies", "setting": "[3]", "value": "12.50 ± 3.07", "unit": "µg/g"}, {"measurement": "Mucosal level, mean concentration ± SEM, unwashed, endoscopy biopsies", "setting": "[3]", "value": "42.31 ± 23.68", "unit": "µg/g"}, {"measurement": "Mucosal level, mean concentration ± SEM, washed, endoscopy biopsies", "setting": "[3]", "value": "19.91 ± 7.87", "unit": "µg/g"}, {"measurement": "Persistence of high curcumin levels in mucosa post-administration", "setting": "[3]; time after last dose at which mucosa was biopsied", "value": "up to 40 h"}, {"measurement": "Total gastrointestinal events, number of patients", "setting": "Adverse event monitoring; 26 patients commenced curcumin", "value": 6}, {"measurement": "Abdominal pain, number of events", "setting": "Adverse event monitoring; [8]", "value": 3}, {"measurement": "Bloating, number of events", "setting": "Adverse event monitoring; [8]", "value": 1}, {"measurement": "Diarrhoea, number of events", "setting": "Adverse event monitoring; [8]", "value": 3}, {"measurement": "Dyspepsia, number of events", "setting": "Adverse event monitoring; [8]", "value": 1}, {"measurement": "Flatulence, number of events", "setting": "Adverse event monitoring; [8]", "value": 1}, {"measurement": "Nausea, number of events", "setting": "Adverse event monitoring; [8]", "value": 2}, {"measurement": "Vomiting, number of events", "setting": "Adverse event monitoring; [8]", "value": 2}, {"measurement": "Total gastrointestinal events, number of events", "setting": "Adverse event monitoring; AEs possibly or probably attributable, Curcumin C3 complex 2.35 g daily 14 days", "value": 13}, {"measurement": "Serious adverse events (SAEs) attributable to curcumin", "setting": "Adverse event monitoring; Curcumin C3 complex 2.35 g daily 14 days", "value": "no serious adverse events"}, {"measurement": "Abdominal pain, grade", "setting": "Adverse event monitoring; NCI-CTC v3.0 grade", "value": "1,2"}, {"measurement": "Bloating, grade", "setting": "Adverse event monitoring; NCI-CTC v3.0 grade", "value": 2}, {"measurement": "Diarrhoea, grade", "setting": "Adverse event monitoring; NCI-CTC v3.0 grade", "value": 1}, {"measurement": "Dyspepsia, grade", "setting": "Adverse event monitoring; NCI-CTC v3.0 grade", "value": 1}, {"measurement": "Flatulence, grade", "setting": "Adverse event monitoring; NCI-CTC v3.0 grade", "value": 1}, {"measurement": "Nausea, grade", "setting": "Adverse event monitoring; NCI-CTC v3.0 grade", "value": "1,2"}, {"measurement": "Total gastrointestinal events, grade", "setting": "Adverse event monitoring; NCI-CTC v3.0 grade", "value": "1 - 2"}, {"measurement": "Vomiting, grade", "setting": "Adverse event monitoring; NCI-CTC v3.0 grade", "value": "1,2"}, {"measurement": "Abdominal pain, number of patients", "setting": "Adverse event monitoring; in vivo", "value": 3}, {"measurement": "Bloating, number of patients", "setting": "Adverse event monitoring; in vivo", "value": 1}, {"measurement": "Diarrhoea, number of patients", "setting": "Adverse event monitoring; in vivo", "value": 3}, {"measurement": "Dyspepsia, number of patients", "setting": "Adverse event monitoring; in vivo", "value": 1}, {"measurement": "Flatulence, number of patients", "setting": "Adverse event monitoring; in vivo", "value": 1}, {"measurement": "Nausea, number of patients", "setting": "Adverse event monitoring; in vivo", "value": 2}, {"measurement": "Vomiting, number of patients", "setting": "Adverse event monitoring; in vivo", "value": 2}, {"measurement": "Quantifiable in plasma (number of participants)", "setting": "[4]", "value": 4}, {"measurement": "Experienced abdominal pain, post-trial responses", "setting": "[5]", "value": 21, "unit": "% participants"}, {"measurement": "Experienced bowel incontinence, post-trial responses", "setting": "[5]", "value": 12, "unit": "% participants"}, {"measurement": "Experienced constipation, post-trial responses", "setting": "[5]", "value": 13, "unit": "% participants"}, {"measurement": "Experienced diarrhoea, post-trial responses", "setting": "[5]", "value": 38, "unit": "% participants"}, {"measurement": "Lipophilicity", "setting": "[6]", "value": "highly lipophilic"}]}
{"smiles": "COc1cc(/C=C/C(=O)CC(=O)/C=C/c2ccc(O)cc2)ccc1O", "note": "[Desmethoxycurcumin, desmethoxycurcumin]", "values": [{"measurement": "Detectable in mucosal samples (number of biopsies)", "setting": "[3]; of 35 mucosal samples, oral Curcumin C3 complex 2.35 g daily 14 days", "value": "27 out of 35"}, {"measurement": "Mucosal level, mean concentration ± SEM, unwashed, surgical biopsies", "setting": "[3]", "value": "10.42 ± 6.52", "unit": "µg/g"}, {"measurement": "Mucosal level, mean concentration ± SEM, washed, surgical biopsies", "setting": "[3]", "value": "1.27 ± 0.42", "unit": "µg/g"}, {"measurement": "Mucosal level, mean concentration ± SEM, unwashed, endoscopy biopsies", "setting": "[3]", "value": "6.33 ± 3.75", "unit": "µg/g"}, {"measurement": "Mucosal level, mean concentration ± SEM, washed, endoscopy biopsies", "setting": "[3]", "value": "4.03 ± 1.69", "unit": "µg/g"}]}
